In article PMC5218480 (PLoS ONE, 2017):

System: MV-4-11 cells
Assay: Gene expression microarray analysis (Affymetrix PrimeView) and GSEA
Type: cell-based, human
Design: RFU PODN (11730768_x_at) / Fold change /veh PODN (11730768_x_at) / RFU LINC00158 (11744669_a_at) / Fold change /veh LINC00158 (11744669_a_at) / RFU DUSP10 (11751237_a_at) / Fold change /veh DUSP10 (11751237_a_at) / RFU ID3 (11757404_x_at) / Fold change /veh ID3 (11757404_x_at) / RFU PLEKHG5 (11737974_s_at) / Fold change /veh PLEKHG5 (11737974_s_at) / RFU LRRC4B (11730491_at) / Fold change /veh LRRC4B (11730491_at) / RFU GIMAP4 (11747438_a_at) / Fold change /veh GIMAP4 (11747438_a_at) / RFU KRT8 (11758183_x_at) / Fold change /veh KRT8 (11758183_x_at) / RFU CNN1 (11734310_a_at) / Fold change /veh CNN1 (11734310_a_at) / RFU VPS37D (11726825_at) / Fold change /veh VPS37D (11726825_at) / RFU C10orf10 (11716522_x_at) / Fold change /veh C10orf10 (11716522_x_at) / RFU KIR2DL2 /// KIR2DL4 /// KIR2DL5A /// KIR2DL5B /// KIR2DS1 /// KIR2DS2 /// KIR2DS3 /// KIR2DS4 /// KIR3DL3 /// KIR3DL3 /// KIR3DS1 (11738374_at) / Fold change /veh KIR2DL2 /// KIR2DL4 /// KIR2DL5A /// KIR2DL5B /// KIR2DS1 /// KIR2DS2 /// KIR2DS3 /// KIR2DS4 /// KIR3DL3 /// KIR3DL3 /// KIR3DS1 (11738374_at) / RFU C1QL1 (11718748_at) / Fold change /veh C1QL1 (11718748_at) / RFU TMPRSS4 (11747572_a_at) / Fold change /veh TMPRSS4 (11747572_a_at) / RFU HAMP (11756126_x_at) / Fold change /veh HAMP (11756126_x_at) / RFU RNFT2 (11725882_a_at) / Fold change /veh RNFT2 (11725882_a_at) / RFU NR4A2 (11747474_a_at) / Fold change /veh NR4A2 (11747474_a_at) / RFU ABCC12 (11746883_a_at) / Fold change /veh ABCC12 (11746883_a_at) / RFU TMEM136 (11760407_x_at) / Fold change /veh TMEM136 (11760407_x_at) / RFU CLDN22 /// WWC2 (11732394_at) / Fold change /veh CLDN22 /// WWC2 (11732394_at) / RFU HLA-DPB1 (11760878_x_at) / Fold change /veh HLA-DPB1 (11760878_x_at) / RFU SPINT1 (11716480_a_at) / Fold change /veh SPINT1 (11716480_a_at) / RFU GAP43 (11754022_s_at) / Fold change /veh GAP43 (11754022_s_at) / RFU A4GNT (11735810_at) / Fold change /veh A4GNT (11735810_at) / RFU PRB3 (11715151_x_at) / Fold change /veh PRB3 (11715151_x_at) / RFU TUBB4B (11761932_at) / Fold change /veh TUBB4B (11761932_at) / RFU CAPN14 (11732068_a_at) / Fold change /veh CAPN14 (11732068_a_at) / RFU TMCC2 (11721928_a_at) / Fold change /veh TMCC2 (11721928_a_at) / RFU IRGQ (11745062_a_at) / Fold change /veh IRGQ (11745062_a_at) / RFU FAM174B (11720279_a_at) / Fold change /veh FAM174B (11720279_a_at) / RFU TMPRSS4 (11748680_a_at) / Fold change /veh TMPRSS4 (11748680_a_at) / RFU FAM212B (11763350_a_at) / Fold change /veh FAM212B (11763350_a_at) / RFU PLEKHG5 (11743358_a_at) / Fold change /veh PLEKHG5 (11743358_a_at) / RFU ZSCAN30 (11745921_a_at) / Fold change /veh ZSCAN30 (11745921_a_at) / RFU CMKLR1 (11741424_a_at) / Fold change /veh CMKLR1 (11741424_a_at) / RFU LOC101060620 /// MAPK8IP1 (11723275_at) / Fold change /veh LOC101060620 /// MAPK8IP1 (11723275_at) / RFU SPTSSB (11747773_x_at) / Fold change /veh SPTSSB (11747773_x_at) / RFU PRSS12 (11739890_at) / Fold change /veh PRSS12 (11739890_at) / RFU BIN1 (11741810_x_at) / Fold change /veh BIN1 (11741810_x_at) / RFU WNT11 (11732464_a_at) / Fold change /veh WNT11 (11732464_a_at) / RFU C10orf10 (11716521_a_at) / Fold change /veh C10orf10 (11716521_a_at) / RFU C5orf56 (11738089_at) / Fold change /veh C5orf56 (11738089_at) / RFU CYB561 (11721691_x_at) / Fold change /veh CYB561 (11721691_x_at) / RFU ANKRD19P (11752326_a_at) / Fold change /veh ANKRD19P (11752326_a_at) / RFU OR2T12 /// OR2T33 /// OR2T8 (11738714_s_at) / Fold change /veh OR2T12 /// OR2T33 /// OR2T8 (11738714_s_at) / RFU VCAN (11748164_a_at) / Fold change /veh VCAN (11748164_a_at) / RFU JSRP1 (11732532_at) / Fold change /veh JSRP1 (11732532_at) / RFU KRTAP10-11 (11738290_x_at) / Fold change /veh KRTAP10-11 (11738290_x_at) / RFU MYO3A (11730013_a_at) / Fold change /veh MYO3A (11730013_a_at) / RFU EBF3 (11725865_a_at) / Fold change /veh EBF3 (11725865_a_at) / RFU CAMK2N1 (11719241_x_at) / Fold change /veh CAMK2N1 (11719241_x_at) / RFU C5orf56 (11738088_a_at) / Fold change /veh C5orf56 (11738088_a_at) / RFU OLFML3 (11715873_a_at) / Fold change /veh OLFML3 (11715873_a_at) / RFU LOC100653217 /// NTM (11731650_a_at) / Fold change /veh LOC100653217 /// NTM (11731650_a_at) / RFU MAPK11 (11762145_a_at) / Fold change /veh MAPK11 (11762145_a_at) / RFU FIZ1 (11724087_x_at) / Fold change /veh FIZ1 (11724087_x_at) / RFU OASL (11726364_x_at) / Fold change /veh OASL (11726364_x_at) / RFU SOX15 (11748057_x_at) / Fold change /veh SOX15 (11748057_x_at) / RFU CD79A (11719716_a_at) / Fold change /veh CD79A (11719716_a_at) / RFU HIST1H1D (11736915_at) / Fold change /veh HIST1H1D (11736915_at) / RFU CASKIN2 (11723855_a_at) / Fold change /veh CASKIN2 (11723855_a_at) / RFU LOC730098 (11760151_x_at) / Fold change /veh LOC730098 (11760151_x_at) / RFU OR4N2 (11742367_at) / Fold change /veh OR4N2 (11742367_at) / RFU PRRT2 (11749266_a_at) / Fold change /veh PRRT2 (11749266_a_at) / RFU SNX32 (11753110_a_at) / Fold change /veh SNX32 (11753110_a_at) / RFU CDHR5 (11726645_a_at) / Fold change /veh CDHR5 (11726645_a_at) / RFU RCAN1 (11760418_a_at) / Fold change /veh RCAN1 (11760418_a_at) / RFU FAM167A (11723789_a_at) / Fold change /veh FAM167A (11723789_a_at) / RFU FAM26E (11764081_at) / Fold change /veh FAM26E (11764081_at) / RFU ISYNA1 (11749810_s_at) / Fold change /veh ISYNA1 (11749810_s_at) / RFU ACY1 (11761880_at) / Fold change /veh ACY1 (11761880_at) / RFU 11764098_at / Fold change /veh 11764098_at / RFU SAMD14 (11745864_x_at) / Fold change /veh SAMD14 (11745864_x_at) / RFU NPB (11741838_a_at) / Fold change /veh NPB (11741838_a_at) / RFU TMPRSS6 (11731388_a_at) / Fold change /veh TMPRSS6 (11731388_a_at) / RFU KRTAP10-2 (11738614_at) / Fold change /veh KRTAP10-2 (11738614_at) / RFU ARHGAP8 /// PRR5-ARHGAP8 (11727945_x_at) / Fold change /veh ARHGAP8 /// PRR5-ARHGAP8 (11727945_x_at) / RFU KRTAP5-7 /// NADSYN1 (11734609_at) / Fold change /veh KRTAP5-7 /// NADSYN1 (11734609_at) / RFU RASL12 (11751679_a_at) / Fold change /veh RASL12 (11751679_a_at) / RFU CDKN2B (11736163_a_at) / Fold change /veh CDKN2B (11736163_a_at) / RFU PRF1 (11729649_at) / Fold change /veh PRF1 (11729649_at) / RFU, ZNF638 /// ZNF638-IT1 / Fold change vs veh, ZNF638 /// ZNF638-IT1 / RFU, PANK3 / Fold change vs veh, PANK3 / RFU, SH3YL1 / Fold change vs veh, SH3YL1 / RFU, ZEB2 / Fold change vs veh, ZEB2 / RFU, NRIP1 / Fold change vs veh, NRIP1 / RFU, PTTG1IP / Fold change vs veh, PTTG1IP / RFU, CAPN2 / Fold change vs veh, CAPN2 / RFU, MED14 / Fold change vs veh, MED14 / RFU, SNORA58 / Fold change vs veh, SNORA58 / RFU, C1orf63 / Fold change vs veh, C1orf63 / RFU, LRRFIP1 / Fold change vs veh, LRRFIP1 / RFU, NDUFAF7 / Fold change vs veh, NDUFAF7 / RFU, SLC12A2 / Fold change vs veh, SLC12A2 / RFU, IBTK / Fold change vs veh, IBTK / RFU, ESF1 / Fold change vs veh, ESF1 / Fold change vs veh, TMEM50B / RFU, TAOK1 / Fold change vs veh, TAOK1 / RFU, ACBD3 / Fold change vs veh, ACBD3 / RFU, TMA16 / Fold change vs veh, TMA16 / RFU, RWDD3 / Fold change vs veh, RWDD3 / RFU, BCAT1 / Fold change vs veh, BCAT1 / RFU, EDEM3 / Fold change vs veh, EDEM3 / RFU, TMEM33 / Fold change vs veh, TMEM33 / RFU, WDR75 / Fold change vs veh, WDR75 / RFU, AHCTF1 / Fold change vs veh, AHCTF1 / RFU, TFRC / Fold change vs veh, TFRC / RFU, ZDHHC17 / Fold change vs veh, ZDHHC17 / RFU, NOM1 / Fold change vs veh, NOM1 / RFU, ARL8B / Fold change vs veh, ARL8B / RFU, ZBTB11 / Fold change vs veh, ZBTB11 / RFU, TAMM41 / Fold change vs veh, TAMM41 / RFU, KIAA1704 /// LOC100996395 / Fold change vs veh, KIAA1704 /// LOC100996395 / RFU, ING1 / Fold change vs veh, ING1 / RFU, TRMT61B / Fold change vs veh, TRMT61B / RFU, FUBP3 / Fold change vs veh, FUBP3 / RFU, TP53 / Fold change vs veh, TP53 / RFU, TNKS2 / Fold change vs veh, TNKS2 / RFU, ZFP14 / Fold change vs veh, ZFP14 / RFU, ACTR2 / Fold change vs veh, ACTR2 / RFU, PPP3R1 / Fold change vs veh, PPP3R1 / RFU, PIK3R1 / Fold change vs veh, PIK3R1 / RFU, HNRNPA1 / Fold change vs veh, HNRNPA1 / RFU, RNF170 / Fold change vs veh, RNF170 / RFU, ZNF28 / Fold change vs veh, ZNF28 / RFU, RNGTT / Fold change vs veh, RNGTT / RFU, OGT / Fold change vs veh, OGT / RFU, BRD1 / Fold change vs veh, BRD1 / RFU, MARS / Fold change vs veh, MARS / RFU, ZNF655 / Fold change vs veh, ZNF655 / RFU, FAHD1 / Fold change vs veh, FAHD1 / RFU, BDP1 / Fold change vs veh, BDP1 / RFU, LRRCC1 / Fold change vs veh, LRRCC1 / RFU, ARID1A / Fold change vs veh, ARID1A / RFU, ZNF146 / Fold change vs veh, ZNF146 / RFU, ZNF330 / Fold change vs veh, ZNF330 / RFU, GPN3 / Fold change vs veh, GPN3 / RFU, C9orf123 / Fold change vs veh, C9orf123 / RFU, N4BP2L2 / Fold change vs veh, N4BP2L2 / RFU, ARFIP1 / Fold change vs veh, ARFIP1 / RFU, FAM179B / Fold change vs veh, FAM179B / RFU, BCL10 / Fold change vs veh, BCL10 / RFU, UHRF1BP1L / Fold change vs veh, UHRF1BP1L / RFU, BET1 / Fold change vs veh, BET1 / RFU, CNOT2 / Fold change vs veh, CNOT2 / RFU, ZNF268 / Fold change vs veh, ZNF268 / Fold change vs veh, ZNF507 / RFU, DGCR2 / Fold change vs veh, DGCR2 / RFU, WDSUB1 / Fold change vs veh, WDSUB1 / Fold change vs veh, HSP90B1 /// MIR3652 / RFU, ADSS / Fold change vs veh, ADSS / RFU, GK / Fold change vs veh, GK / RFU, ZNF148 / Fold change vs veh, ZNF148 / RFU, TAF9 / Fold change vs veh, TAF9 / RFU, SLC1A5 / Fold change vs veh, SLC1A5 / RFU, SLMO2 / Fold change vs veh, SLMO2 / RFU, ABCC4 / Fold change vs veh, ABCC4 / RFU, LOC101060439 /// RAP1B / Fold change vs veh, LOC101060439 /// RAP1B / RFU, RFX7 / Fold change vs veh, RFX7 / RFU, GTPBP10 / Fold change vs veh, GTPBP10 / RFU, CNEP1R1 / Fold change vs veh, CNEP1R1 / RFU, BIVM-ERCC5 /// ERCC5 / Fold change vs veh, BIVM-ERCC5 /// ERCC5 / RFU, ILF3 / Fold change vs veh, ILF3 / RFU 11762660_at / Fold change /veh 11762660_at / RFU VCAN (11757783_s_at) / Fold change /veh VCAN (11757783_s_at) / RFU DDX43 (11728927_at) / Fold change /veh DDX43 (11728927_at) / RFU KRT8 (11758188_x_at) / Fold change /veh KRT8 (11758188_x_at) / RFU NKD1 (11759106_at) / Fold change /veh NKD1 (11759106_at) / RFU SRD5A1 (11742802_a_at) / Fold change /veh SRD5A1 (11742802_a_at) / RFU TPSAB1 /// TPSB2 (11721975_s_at) / Fold change /veh TPSAB1 /// TPSB2 (11721975_s_at) / RFU GSTM3 (11746129_a_at) / Fold change /veh GSTM3 (11746129_a_at) / RFU IL23R (11737362_x_at) / Fold change /veh IL23R (11737362_x_at) / RFU TMEM51 (11727254_a_at) / Fold change /veh TMEM51 (11727254_a_at) / RFU PIWIL2 (11732686_x_at) / Fold change /veh PIWIL2 (11732686_x_at) / RFU ORM1 (11744905_x_at) / Fold change /veh ORM1 (11744905_x_at) / RFU CCDC152 (11743942_at) / Fold change /veh CCDC152 (11743942_at) / RFU ECM1 (11717891_a_at) / Fold change /veh ECM1 (11717891_a_at) / RFU IL23R (11748794_a_at) / Fold change /veh IL23R (11748794_a_at) / RFU TNFAIP8L3 (11732012_x_at) / Fold change /veh TNFAIP8L3 (11732012_x_at) / RFU MBOAT4 (11741988_at) / Fold change /veh MBOAT4 (11741988_at) / RFU 11764193_at / Fold change /veh 11764193_at / RFU TMEM53 (11763286_at) / Fold change /veh TMEM53 (11763286_at) / RFU MAGEB2 (11727129_at) / Fold change /veh MAGEB2 (11727129_at) / RFU TMEM200A (11744735_a_at) / Fold change /veh TMEM200A (11744735_a_at) / RFU CCDC152 (11751479_a_at) / Fold change /veh CCDC152 (11751479_a_at) / RFU FAM211A (11726209_a_at) / Fold change /veh FAM211A (11726209_a_at) / RFU RGS16 (11746705_a_at) / Fold change /veh RGS16 (11746705_a_at) / RFU VCAN (11755009_s_at) / Fold change /veh VCAN (11755009_s_at) / RFU RHOB (11743442_s_at) / Fold change /veh RHOB (11743442_s_at) / RFU RGS16 (11720943_a_at) / Fold change /veh RGS16 (11720943_a_at) / RFU RGS16 (11720944_at) / Fold change /veh RGS16 (11720944_at) / RFU, VPS4B / Fold change vs veh, VPS4B / RFU, CREB1 / Fold change vs veh, CREB1 / RFU, DNAJC13 / Fold change vs veh, DNAJC13 / RFU, GNAQ / Fold change vs veh, GNAQ / RFU, CDK5R1 / Fold change vs veh, CDK5R1 / RFU, ZRANB3 / Fold change vs veh, ZRANB3 / RFU, CUL4A / Fold change vs veh, CUL4A / RFU, CCNY / Fold change vs veh, CCNY / RFU, UFL1 / Fold change vs veh, UFL1 / RFU, COG3 / Fold change vs veh, COG3 / RFU, DIAPH2 / Fold change vs veh, DIAPH2 / RFU, SKA2 / Fold change vs veh, SKA2 / RFU, AFF3 / Fold change vs veh, AFF3 / RFU, LMF1 / Fold change vs veh, LMF1 / RFU, IPO11 / Fold change vs veh, IPO11 / RFU, DFFB / Fold change vs veh, DFFB / RFU, FOXP1 / Fold change vs veh, FOXP1 / RFU, CARD8 / Fold change vs veh, CARD8 / RFU, STRN3 / Fold change vs veh, STRN3 / RFU, ADK / Fold change vs veh, ADK / RFU, RASSF2 / Fold change vs veh, RASSF2 / RFU, WIPF1 / Fold change vs veh, WIPF1 / RFU, LARP1B / Fold change vs veh, LARP1B / RFU, RASA1 / Fold change vs veh, RASA1 / RFU, RB1 / Fold change vs veh, RB1 / RFU, PPFIA1 / Fold change vs veh, PPFIA1 / RFU, MAT2A / Fold change vs veh, MAT2A / RFU, CCT5 / Fold change vs veh, CCT5 / RFU, WDR92 / Fold change vs veh, WDR92 / RFU, CUX1 / Fold change vs veh, CUX1 / RFU, TTC7A / Fold change vs veh, TTC7A / RFU, TMEM135 / Fold change vs veh, TMEM135 / RFU, DEPTOR / Fold change vs veh, DEPTOR / RFU, CPM / Fold change vs veh, CPM / RFU, DNAJB6 / Fold change vs veh, DNAJB6 / RFU, CACNA2D3 / Fold change vs veh, CACNA2D3 / RFU, DTX4 / Fold change vs veh, DTX4 / RFU, TFCP2 / Fold change vs veh, TFCP2 / RFU, GMCL1 /// GMCL1P1 / Fold change vs veh, GMCL1 /// GMCL1P1 / RFU, AEBP2 / Fold change vs veh, AEBP2 / RFU, SNHG1 /// SNORD22 /// SNORD25 /// SNORD26 /// SNORD27 /// SNORD28 /// SNORD29 /// SNORD31 / Fold change vs veh, SNHG1 /// SNORD22 /// SNORD25 /// SNORD26 /// SNORD27 /// SNORD28 /// SNORD29 /// SNORD31 / Fold change (Aza/veh), C12orf56 (ProbeSet 11735607_a_at) / Fold change (ACY-1035/veh), C12orf56 (ProbeSet 11735607_a_at) / Fold change (Aza/veh), FGFR1OP (ProbeSet 11751329_s_at) / Fold change (ACY-1035/veh), FGFR1OP (ProbeSet 11751329_s_at) / Fold change (Aza/veh), VPS36 (ProbeSet 11739960_a_at) / Fold change (ACY-1035/veh), VPS36 (ProbeSet 11739960_a_at) / RFU SYPL1 (11715823_x_at) / Fold change /veh SYPL1 (11715823_x_at) / RFU IGFBP7 (11715501_s_at) / Fold change /veh IGFBP7 (11715501_s_at) / RFU REEP3 (11722064_at) / Fold change /veh REEP3 (11722064_at) / RFU IGLL1 (11728026_x_at) / Fold change /veh IGLL1 (11728026_x_at): dose or concentration left out as unconfirmed
Details: MV-4-11 cells, 48 hours

SMILES: Nc1ncn([C@@H]2O[C@H](CO)[C@@H](O)[C@H]2O)c(=O)n1 [azacitidine]
- Fold change /veh NR4A2 (11747474_a_at): 0.97
